Experimental data taken from patent US9464064B2, “HCV helicase inhibitors and methods of use thereof” (University of Kansas, priority 2011, dated 2016).
Non-standard residues stand in square brackets, D forms with d. Residues, ends and D or L forms follow the SMILES beside them. ξ: configuration not given here. *: point of attachment. ξNMe2Val = CC(C)C(C(=O)*)N(C)C; NMeV = CN[CH](C(=O)O)C(C)C; NHBn = c1ccc(CN*)cc1

Biological target: T1, HCV NS3 helicase NS3h_1b(con1) (Hepatitis C virus genotype 1b, UniProt Q9WMX2)
T1 construct: truncated C-terminally His-tagged NS3 proteins lacking the N-terminal protease, called NS3h; His-tag (C); made in house
Test: MBHA screen of NCI mechanistic set library at 20 μM (percent inhibition, compound interference)
Assay type: biochemical
Conditions: compounds at 20 μM; for Inh. (%) (Inhibition): calculated from Equation 1
Procedure, shortened: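 Molecular beacon-based DNA unwinding assay; compounds screened at 20 μM in triplicate, with DMSO-only negative and 500 nM dT20 positive controls. Fluorescence (ex 643/em 670 nm) was read before and 30 min after adding ATP to 1 mM. Percent inhibition came from the change relative to DMSO controls; interference from pre-ATP fluorescence versus DMSO controls.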

[1] = assay interference calculated with Equation 2 (fluorescence vs DMSO-only controls before ATP)
[2] = MBHA with DNA substrate, assay interference calculated with Equation 2

T1 sequence (Q9WMX2 1192-1657): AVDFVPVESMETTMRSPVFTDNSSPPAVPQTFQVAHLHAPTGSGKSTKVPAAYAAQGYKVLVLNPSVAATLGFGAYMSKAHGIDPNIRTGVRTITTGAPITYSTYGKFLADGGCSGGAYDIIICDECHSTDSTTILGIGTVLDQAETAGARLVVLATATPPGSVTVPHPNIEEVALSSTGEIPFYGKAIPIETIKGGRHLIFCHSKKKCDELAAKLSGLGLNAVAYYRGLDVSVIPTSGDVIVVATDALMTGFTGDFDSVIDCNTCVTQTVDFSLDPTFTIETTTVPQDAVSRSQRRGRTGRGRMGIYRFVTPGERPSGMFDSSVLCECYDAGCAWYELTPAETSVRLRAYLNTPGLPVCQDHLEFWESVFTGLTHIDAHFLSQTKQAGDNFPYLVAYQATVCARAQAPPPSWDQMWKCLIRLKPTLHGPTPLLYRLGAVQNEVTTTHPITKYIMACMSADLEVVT

| SMILES | Inh. (%) (Inhibition) (MBHA with a DNA substrate) | Int.* (Ratio) (Interference) [1] | Int.* (Ratio) (Interference) [2] | Inh. (%) (Inhibition) (MBHA with DNA substrate) |
| --- | --- | --- | --- | --- |
| O=C1C=C(N2CCNCC2)C(=O)c2c(O)ccc(O)c21 [Compound 658144] | −5.5 | 0.78 | – | – |
| CC(=O)c1sc2[n+](c1C)C(=O)/C(=C\c1ccccc1Cl)S2 [Compound 658285] | – | – | 0.90 | 3.1 |
| CCOC(=O)c1sc2[n+](c1C)C(=O)/C(=C/c1ccc([N+](=O)[O-])cc1)S2.[Cl-] [Compound 658293] | −22.4 | 1.08 | – | – |
| CCn1c(O)c(C=Nc2ccccc2)s/c1=N/Nc1ncc(CC(=O)Nc2ccccc2C)s1 [Compound 658350] | – | – | 1.00 | −18.3 |
| CN(C)CCCCN1CCc2c(n(C)c3ccccc23)C1=O [Compound 658388] | – | – | 1.09 | −18.7 |
| CC(=O)N=C1N(/C=C2\C(=O)Oc3ccccc3C2=O)C(=O)/C(=C/c2ccccc2Cl)N1C [Compound 658494] | – | – | 0.95 | 6.7 |
| COc1ccc(NC(=O)C(=O)/C=C(\O)c2ccccc2)cc1 [Compound 658709] | – | – | 0.90 | −7.9 |
| O=C(CC(O)(C(F)(F)F)C(F)(F)Cl)CC(O)(C(F)(F)F)C(F)(F)Cl (centres unmarked) [Compound 659174] | 8.7 | 0.92 | – | – |
| CN=c1sc2c(n1C)C(=O)c1ccccc1C2=O [Compound 659501] | −6.6 | 1.06 | – | – |
| Cl.O=C1C=CC(=O)c2c(O)c(N3CCN(CCOCCO)CC3)c(Br)c(O)c21 [Compound 659999] | – | – | 0.44 | 6.1 |
| Cc1nn(-c2ccccc2)c2c1CC(=O)Nc1ccccc1-2 [Compound 662553] | −4.6 | 1.02 | – | – |
| C=C(Cl)C(Cl)(CBr)CCC(Br)C(C)(C)Cl (centres unmarked) [Compound 662825] | – | – | 0.93 | 14.5 |
| COc1ccc(NC2=NCCO2)c2c1CCCC2 [Compound 663996] | – | – | 1.08 | −2.7 |
| O=C1C(C(O)(C(F)(F)F)C(F)(F)F)CCC1C(O)(C(F)(F)F)C(F)(F)F (centres unmarked) [Compound 664181] | – | – | 0.84 | 14.5 |
| CN(NC1=NCCO1)c1ccc2ccccc2c1 [Compound 664286] | −22.3 | 1.18 | – | – |
| CC(Cc1ccccc1)NC1=NCCO1 (centres unmarked) [Compound 664298] | 9.8 | 0.96 | – | – |
| CC(=O)C(N1CCCCC1)C(O)(C(F)(F)F)C(F)(F)F (centres unmarked) [Compound 664327] | – | – | 0.82 | 25.5 |
| O/N=C(\CC(O)(C(F)(F)F)C(F)(F)F)c1cccc(Cl)c1 [Compound 664329] | – | – | 1.01 | −14.5 |
| CC1=CC(=O)c2cccc(NC3=NCCO3)c21 [Compound 664331] | – | – | 1.03 | −1.8 |
| O=C1Cc2c([nH]c3ccc(Br)cc23)-c2ccccc2N1 [Compound 664704] | – | – | 0.98 | −10.6 |
| CCCCCCC1CC(=O)C1(Cl)Cl (centres unmarked) [Compound 666526] | – | – | 0.97 | −1.3 |
| CCOC(=O)Cc1cc(=O)oc2cc(O)ccc12 [Compound 667235] | – | – | 1.06 | 12.3 |
| CN(C)c1cccc(/C=C(\C#N)c2ccccc2)c1 [Compound 667251] | −7.0 | 1.09 | – | – |
| S=C1Nc2cnc3ccccc3c2SC1c1ccccc1 (centres unmarked) [Compound 667467] | – | – | 0.89 | 33.3 |
| C=C1CC(Cn2cc(Br)c(=O)[nH]c2=O)(c2ccc(-c3ccccc3)cc2)OC1=O (centres unmarked) [Compound 668260] | – | – | 0.94 | 0.4 |
| C=C1CC(COc2cc(=O)oc3ccccc23)(c2ccccc2)OC1=O (centres unmarked) [Compound 668270] | – | – | 0.83 | 28.1 |
| CC(C)C(NC(=O)C(C(C)C)N(C)C)C(=O)N(C)C(C(=O)N1CCCC1C(=O)N1CCCC1C(=O)NCc1ccccc1)C(C)C.Cl (centres unmarked) [Compound 669356] (ξNMe2Val-V[NMeV]PP-NHBn; configuration not given here) | – | – | 1.08 | −9.2 |
| O=C(ON=C1c2ccccc2C(Br)C(Br)c2ccccc21)c1ccccc1 (centres unmarked) [Compound 670140] | – | – | 0.95 | 15.2 |
